Measurements published in patent publication US6977082B2, “High efficacy antibacterial compositions having enhanced esthetic and skin care properties” (The Dial Corporation, priority 2001, dated 2005).

Assay: Repeat Application Soap Chamber (irritation) Test
Conditions: occlusive patches on volar forearm, six days, dilute solutions
Description: Twelve male and female subjects between the ages of 18 and 65, who were in good health, were enrolled in the test. Dilute solutions of all test compositions were made each day of patching. Patches were totally occlusive chambers, 12 mm in diameter, applied to the volar forearm for a total of six days. Expert visual gradings, using a four-point scale for erythema, scaling, and fissuring were used as the objective measure of observation for this study. Grading was performed at baseline (i.e., when panelists were enrolled), 30 minutes after patch removal on days one to six, and at 24 hours on days one to six. A maximum for each tested characteristic was established as a “3” score.

With `CCCCCCCCCCCCOS(=O)(=O)[O-].[Na+]` [SLS, sodium lauryl sulfate] the “irritation potential, ranking from highest to lowest” value was “SLS>HCPHW-E>HCPHW-H>HCPHW-G>HCPHW-F>Composition A>Negative Control”.
